Results published in article PMC5080985 (Journal of medicinal chemistry, 2015).

Assays:
[1] = target: AmpC β-lactamase (Escherichia coli, UniProt P00811); test: Controls for colloidal aggregation; settings: AmpC β-lactamase counterscreen, particle formation by DLS
[2] = target: T1, KDM4C (Homo sapiens, UniProt Q9H3R0); test: Thermal shift assay; format: binding
T1 sequence (Q9H3R0 1-1056): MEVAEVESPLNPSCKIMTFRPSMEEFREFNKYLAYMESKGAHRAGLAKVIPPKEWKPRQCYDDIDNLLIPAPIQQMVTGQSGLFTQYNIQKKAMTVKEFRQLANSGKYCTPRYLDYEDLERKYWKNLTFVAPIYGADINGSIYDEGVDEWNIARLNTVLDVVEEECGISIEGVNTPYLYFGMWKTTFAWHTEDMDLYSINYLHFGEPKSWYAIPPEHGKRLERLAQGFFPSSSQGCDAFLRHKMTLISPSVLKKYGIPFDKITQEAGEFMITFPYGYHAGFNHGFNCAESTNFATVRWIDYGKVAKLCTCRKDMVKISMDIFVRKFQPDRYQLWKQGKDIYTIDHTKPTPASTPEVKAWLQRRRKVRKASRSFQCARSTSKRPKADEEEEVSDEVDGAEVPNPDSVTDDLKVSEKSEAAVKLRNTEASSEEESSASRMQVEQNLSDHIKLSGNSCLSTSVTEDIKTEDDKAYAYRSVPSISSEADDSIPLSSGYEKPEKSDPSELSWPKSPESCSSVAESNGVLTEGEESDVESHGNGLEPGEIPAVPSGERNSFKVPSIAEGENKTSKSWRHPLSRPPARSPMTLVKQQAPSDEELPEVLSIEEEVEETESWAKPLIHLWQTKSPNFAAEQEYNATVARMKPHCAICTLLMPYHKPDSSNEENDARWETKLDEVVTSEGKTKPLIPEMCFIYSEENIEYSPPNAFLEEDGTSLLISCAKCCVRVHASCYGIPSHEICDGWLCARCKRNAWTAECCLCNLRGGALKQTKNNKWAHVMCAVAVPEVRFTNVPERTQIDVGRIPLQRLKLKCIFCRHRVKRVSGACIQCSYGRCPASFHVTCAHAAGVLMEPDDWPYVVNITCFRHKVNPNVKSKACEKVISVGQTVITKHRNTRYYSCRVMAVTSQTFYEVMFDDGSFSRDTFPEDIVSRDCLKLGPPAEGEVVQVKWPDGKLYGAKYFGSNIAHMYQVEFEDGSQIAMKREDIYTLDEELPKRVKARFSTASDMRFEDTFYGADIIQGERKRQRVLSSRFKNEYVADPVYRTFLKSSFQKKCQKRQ

[3] = target: T1, KDM4C; test: MALDI assay, KDM4C; format: biochemical
[4] = target: FIH (Homo sapiens, UniProt Q9NWT6); test: MALDI counterscreen, FIH; format: biochemical
[5] = target: KDM5B (JARID1B, PLU-1) (Homo sapiens, UniProt Q9UGL1); test: AlphaScreen counterscreen, KDM5B; format: biochemical
[6] = target: T2, KDM4C (Homo sapiens, UniProt Q9H3R0); test: KDM4C time-resolved FRET; format: biochemical
T2 sequence (Q9H3R0 1-352): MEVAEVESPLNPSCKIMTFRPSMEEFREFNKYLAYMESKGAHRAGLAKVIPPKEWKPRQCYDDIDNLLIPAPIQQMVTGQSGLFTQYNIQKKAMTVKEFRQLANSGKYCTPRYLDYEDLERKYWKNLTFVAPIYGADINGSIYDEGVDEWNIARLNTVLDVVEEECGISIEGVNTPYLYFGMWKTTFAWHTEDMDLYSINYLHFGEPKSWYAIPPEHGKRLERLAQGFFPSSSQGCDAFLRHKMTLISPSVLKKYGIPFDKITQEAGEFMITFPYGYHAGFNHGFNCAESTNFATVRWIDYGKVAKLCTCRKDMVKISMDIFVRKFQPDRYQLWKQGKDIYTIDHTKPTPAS

[7] = target: T3, KDM2A (FBXL11) (Homo sapiens, UniProt Q9Y2K7); test: AlphaScreen counterscreen, KDM2A; format: biochemical
T3 sequence (Q9Y2K7 1-1162): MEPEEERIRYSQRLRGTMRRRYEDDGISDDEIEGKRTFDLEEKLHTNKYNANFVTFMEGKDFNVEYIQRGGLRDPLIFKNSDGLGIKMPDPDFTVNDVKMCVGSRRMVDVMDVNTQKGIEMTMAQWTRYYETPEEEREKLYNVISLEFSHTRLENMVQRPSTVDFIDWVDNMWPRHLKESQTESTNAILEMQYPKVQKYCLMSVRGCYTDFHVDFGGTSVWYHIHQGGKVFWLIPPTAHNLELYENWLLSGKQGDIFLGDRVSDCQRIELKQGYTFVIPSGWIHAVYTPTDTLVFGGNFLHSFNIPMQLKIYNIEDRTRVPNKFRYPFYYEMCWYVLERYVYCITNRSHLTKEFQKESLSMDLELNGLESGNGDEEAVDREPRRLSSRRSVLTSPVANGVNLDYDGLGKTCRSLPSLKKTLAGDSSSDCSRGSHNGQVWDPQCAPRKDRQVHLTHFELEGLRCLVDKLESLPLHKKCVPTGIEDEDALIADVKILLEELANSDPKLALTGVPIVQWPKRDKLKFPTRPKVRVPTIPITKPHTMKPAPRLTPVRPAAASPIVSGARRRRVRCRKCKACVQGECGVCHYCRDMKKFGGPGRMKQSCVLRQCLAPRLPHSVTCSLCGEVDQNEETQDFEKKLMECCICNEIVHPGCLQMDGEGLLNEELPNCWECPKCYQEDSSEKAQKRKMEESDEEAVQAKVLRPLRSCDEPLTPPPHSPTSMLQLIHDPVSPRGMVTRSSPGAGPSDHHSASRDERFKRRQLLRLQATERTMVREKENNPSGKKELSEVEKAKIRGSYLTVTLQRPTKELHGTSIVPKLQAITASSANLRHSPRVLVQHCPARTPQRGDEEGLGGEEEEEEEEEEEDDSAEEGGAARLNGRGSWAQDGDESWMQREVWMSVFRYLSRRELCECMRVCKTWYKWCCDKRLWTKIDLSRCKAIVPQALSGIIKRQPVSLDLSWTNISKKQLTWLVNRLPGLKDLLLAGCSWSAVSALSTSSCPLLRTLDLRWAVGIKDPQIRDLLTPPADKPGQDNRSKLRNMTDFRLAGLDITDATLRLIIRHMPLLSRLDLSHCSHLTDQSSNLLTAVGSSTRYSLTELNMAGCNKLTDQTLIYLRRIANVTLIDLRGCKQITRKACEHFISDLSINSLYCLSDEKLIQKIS

[8] = target: KDM6B (JMJD3) (Homo sapiens, UniProt O15054); test: AlphaScreen counterscreen, KDM6B; format: biochemical
Chain of KDM6B (JMJD3) (O15054 whole entry, species assumed): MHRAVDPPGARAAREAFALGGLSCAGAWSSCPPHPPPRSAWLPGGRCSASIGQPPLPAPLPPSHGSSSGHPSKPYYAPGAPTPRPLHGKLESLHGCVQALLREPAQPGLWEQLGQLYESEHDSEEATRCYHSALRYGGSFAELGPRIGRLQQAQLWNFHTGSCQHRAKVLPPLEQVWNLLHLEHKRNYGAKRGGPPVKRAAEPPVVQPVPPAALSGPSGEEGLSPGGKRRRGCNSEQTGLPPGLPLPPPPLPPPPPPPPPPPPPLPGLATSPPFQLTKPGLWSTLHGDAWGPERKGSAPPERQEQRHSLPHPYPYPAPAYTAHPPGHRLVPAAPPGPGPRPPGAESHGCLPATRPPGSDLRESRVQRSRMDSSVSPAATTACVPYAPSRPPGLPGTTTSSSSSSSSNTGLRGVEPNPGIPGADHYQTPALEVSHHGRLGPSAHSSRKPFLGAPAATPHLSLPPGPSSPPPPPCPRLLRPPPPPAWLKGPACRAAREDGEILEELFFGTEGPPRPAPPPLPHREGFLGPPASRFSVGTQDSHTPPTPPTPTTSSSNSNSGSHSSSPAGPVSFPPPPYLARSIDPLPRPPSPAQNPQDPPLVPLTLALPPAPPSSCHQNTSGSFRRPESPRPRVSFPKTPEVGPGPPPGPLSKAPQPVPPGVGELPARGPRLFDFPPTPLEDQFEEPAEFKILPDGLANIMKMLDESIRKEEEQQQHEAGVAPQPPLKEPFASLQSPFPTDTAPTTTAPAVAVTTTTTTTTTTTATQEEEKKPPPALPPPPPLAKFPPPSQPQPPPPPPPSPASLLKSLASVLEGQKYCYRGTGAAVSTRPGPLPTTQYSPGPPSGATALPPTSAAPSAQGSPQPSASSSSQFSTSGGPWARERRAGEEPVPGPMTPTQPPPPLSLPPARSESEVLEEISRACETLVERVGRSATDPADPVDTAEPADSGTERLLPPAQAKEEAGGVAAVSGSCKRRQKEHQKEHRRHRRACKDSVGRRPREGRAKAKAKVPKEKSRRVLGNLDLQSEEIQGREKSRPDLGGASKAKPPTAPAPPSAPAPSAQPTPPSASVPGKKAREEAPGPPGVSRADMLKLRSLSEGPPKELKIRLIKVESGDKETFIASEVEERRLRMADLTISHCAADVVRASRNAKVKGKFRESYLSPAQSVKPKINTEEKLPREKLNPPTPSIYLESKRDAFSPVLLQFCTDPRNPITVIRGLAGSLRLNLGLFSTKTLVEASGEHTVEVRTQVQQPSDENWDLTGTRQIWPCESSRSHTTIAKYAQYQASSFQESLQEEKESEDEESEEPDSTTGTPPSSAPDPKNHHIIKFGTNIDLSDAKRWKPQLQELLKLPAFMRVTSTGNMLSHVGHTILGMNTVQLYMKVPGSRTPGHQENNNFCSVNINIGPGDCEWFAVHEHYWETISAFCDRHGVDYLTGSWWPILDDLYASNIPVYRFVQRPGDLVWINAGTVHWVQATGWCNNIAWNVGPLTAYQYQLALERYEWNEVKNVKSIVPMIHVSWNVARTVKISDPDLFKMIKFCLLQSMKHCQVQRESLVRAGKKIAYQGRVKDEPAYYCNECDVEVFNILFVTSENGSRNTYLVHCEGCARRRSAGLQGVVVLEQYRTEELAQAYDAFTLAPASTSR

Chain of FIH (Q9NWT6 whole entry): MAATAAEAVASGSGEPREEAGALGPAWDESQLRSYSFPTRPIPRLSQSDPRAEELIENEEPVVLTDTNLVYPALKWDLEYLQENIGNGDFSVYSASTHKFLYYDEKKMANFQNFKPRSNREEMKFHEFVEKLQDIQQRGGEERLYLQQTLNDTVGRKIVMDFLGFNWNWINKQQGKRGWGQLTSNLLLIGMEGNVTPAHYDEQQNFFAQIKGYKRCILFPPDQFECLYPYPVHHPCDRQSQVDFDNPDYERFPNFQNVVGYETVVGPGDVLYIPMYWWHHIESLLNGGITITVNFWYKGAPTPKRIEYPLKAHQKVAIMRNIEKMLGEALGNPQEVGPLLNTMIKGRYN
Chain of AmpC β-lactamase (P00811 20-377): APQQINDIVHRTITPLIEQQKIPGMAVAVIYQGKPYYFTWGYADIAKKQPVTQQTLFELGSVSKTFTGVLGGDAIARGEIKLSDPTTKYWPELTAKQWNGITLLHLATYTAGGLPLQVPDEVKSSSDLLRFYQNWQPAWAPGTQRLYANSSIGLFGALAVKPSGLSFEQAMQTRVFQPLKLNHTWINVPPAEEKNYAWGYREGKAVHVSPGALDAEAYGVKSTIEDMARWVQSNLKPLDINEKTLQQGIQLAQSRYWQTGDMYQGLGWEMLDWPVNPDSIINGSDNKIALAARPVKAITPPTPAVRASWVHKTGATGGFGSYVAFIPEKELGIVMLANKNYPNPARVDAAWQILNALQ
Chain of KDM5B (JARID1B, PLU-1) (Q9UGL1 whole entry, species assumed): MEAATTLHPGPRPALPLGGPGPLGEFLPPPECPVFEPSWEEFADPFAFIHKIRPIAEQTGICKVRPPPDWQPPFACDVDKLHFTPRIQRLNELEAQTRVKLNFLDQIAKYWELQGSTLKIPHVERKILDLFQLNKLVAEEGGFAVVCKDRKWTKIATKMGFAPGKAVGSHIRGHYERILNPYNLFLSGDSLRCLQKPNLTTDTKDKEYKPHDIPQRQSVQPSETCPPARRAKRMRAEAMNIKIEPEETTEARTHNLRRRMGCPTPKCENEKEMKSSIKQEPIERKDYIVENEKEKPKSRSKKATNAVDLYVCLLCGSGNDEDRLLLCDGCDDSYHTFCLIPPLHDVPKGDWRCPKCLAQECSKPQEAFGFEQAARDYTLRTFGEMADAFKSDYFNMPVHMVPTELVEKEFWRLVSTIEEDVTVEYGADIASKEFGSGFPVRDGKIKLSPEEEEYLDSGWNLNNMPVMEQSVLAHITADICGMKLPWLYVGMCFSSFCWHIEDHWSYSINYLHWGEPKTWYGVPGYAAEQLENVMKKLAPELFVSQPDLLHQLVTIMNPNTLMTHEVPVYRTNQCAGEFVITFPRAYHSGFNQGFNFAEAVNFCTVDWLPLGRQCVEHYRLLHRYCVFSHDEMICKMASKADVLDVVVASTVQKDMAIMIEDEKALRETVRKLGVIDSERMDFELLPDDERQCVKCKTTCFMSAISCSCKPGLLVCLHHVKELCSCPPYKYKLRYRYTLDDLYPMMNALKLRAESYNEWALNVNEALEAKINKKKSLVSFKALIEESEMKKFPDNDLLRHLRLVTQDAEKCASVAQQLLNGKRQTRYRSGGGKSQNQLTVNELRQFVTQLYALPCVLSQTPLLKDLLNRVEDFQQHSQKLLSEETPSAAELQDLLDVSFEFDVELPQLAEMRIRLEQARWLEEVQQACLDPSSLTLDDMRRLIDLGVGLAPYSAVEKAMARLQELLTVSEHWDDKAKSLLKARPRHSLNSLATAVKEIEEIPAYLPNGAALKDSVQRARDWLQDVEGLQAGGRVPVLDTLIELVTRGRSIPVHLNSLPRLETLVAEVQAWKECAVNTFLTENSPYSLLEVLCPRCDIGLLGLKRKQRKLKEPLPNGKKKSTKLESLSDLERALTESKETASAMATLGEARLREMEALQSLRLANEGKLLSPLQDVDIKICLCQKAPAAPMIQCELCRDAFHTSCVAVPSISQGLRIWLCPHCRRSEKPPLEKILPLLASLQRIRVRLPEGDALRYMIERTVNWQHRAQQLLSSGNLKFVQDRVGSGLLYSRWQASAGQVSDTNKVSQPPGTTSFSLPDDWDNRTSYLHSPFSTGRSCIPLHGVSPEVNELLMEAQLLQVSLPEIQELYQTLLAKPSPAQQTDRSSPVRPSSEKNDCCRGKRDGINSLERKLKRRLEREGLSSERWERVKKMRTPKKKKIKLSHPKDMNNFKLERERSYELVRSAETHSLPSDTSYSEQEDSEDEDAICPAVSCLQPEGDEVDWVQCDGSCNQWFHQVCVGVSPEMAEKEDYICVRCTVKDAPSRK

Cn1nccc1CNc1ccc(O)c(C(=O)O)c1 [Compound 4]
nonspecific inhibition / colloidal aggregation [1]: neither of the two inhibitors acted as aggregators in a relevant concentration range

COCC(=O)Nc1ccc(O)c(C(=O)O)c1 [Compound 5]
nonspecific inhibition / colloidal aggregation [1]: neither of the two inhibitors acted as aggregators in a relevant concentration range

Cc1ccccc1CNc1ccc(O)c(C(=O)O)c1 [Compound 20]
nonspecific inhibition / colloidal aggregation [1]: did not exhibit nonspecific inhibition | stabilization of the enzyme in thermal shift assays [2]: stabilized the enzyme in thermal shift assays

Nc1ccc(O)c(-c2cc(C(=O)O)ccn2)c1 [Compound 30, 2-(5-Amino-2-hydroxyphenyl)-isonicotinic Acid]
IC50 [3]: 135 µM | IC50 [4]: 828 µM | fold selectivity over KDM4C, FIH ([4]; MALDI, 100 μM α-KG): 6 fold

O=C(O)c1ccnc(-c2cc(NC(=O)c3ccc(O)cc3)ccc2O)c1 [Compound 35]
fold selectivity over KDM4C, KDM5B [5]: Ml | fold selectivity over KDM4C, FIH ([4]; MALDI, 100 μM α-KG): > 85 fold

COc1cccc(CC(=O)Nc2ccc(O)c(-c3cc(C(=O)O)ccn3)c2)c1 [Compound 40]
fold selectivity over KDM4C, FIH ([4]; MALDI, 100 μM α-KG): > 68 fold

COCC(=O)Nc1ccc(O)c(-c2cc(C(=O)O)ccn2)c1 [Compound 42]
fold improvement in potency over the parent 5-aminosalicylate fragment ([6]; TR-FRET IC50 at 2 μM α-KG, 42 vs 5, 21 vs 4): ~700 fold | fold selectivity over KDM4C, FIH ([4]; MALDI, 100 μM α-KG): > 11 fold

CC(=O)Nc1ccc(O)c(-c2cc(C(=O)O)ccn2)c1 [Compound 44]
fold selectivity over KDM4C, KDM2A [7]: > 6 fold | fold selectivity over KDM4C, KDM6B [8]: > 6 fold | fold selectivity over KDM4C, FIH ([4]; MALDI, 100 μM α-KG): > 8 fold | IC50 FIH, MALDI Assays ([4]; MALDI, 100 μM α-KG, >500 = no inhibition at 500 μM inhibitor): no inhibition

CC(=O)Nc1ccc(O)c(C(=O)O)c1 [N-acetyl-5-aminosalicylic acid]
IC50(μM) 2μM αKG ([6]; KDM4C, TR-FRET, 2 μM α-KG): no inhibition
